Experiments:
Propionibacterium acnes = assay: Log reduction assay; assay type: cell-based; conditions: 3.125% solution
Procedure: In order to determine the efficacy of Neramexane against a specific microorganism population (i.e., Propionibacterium acnes), a log reduction assay is performed. The organisms are prepared by inoculating the fluid thioglycolate (FTM). The microorganism is then incubated at 35.2±2.5° C. for 24 hours. The microbial suspension is adjusted to approximately 107 to 108 colony forming units (CFU) per mL and labeled as the stock suspension. […] Then […] is transferred into 11 mL of DI water to prepare a 3.125% solution. This solution is then inoculated with the microorganism and tested at time intervals of 30 seconds, 1 minute, and 5 minutes. One milliliter from each dilution is spread plated in duplicate onto tryptic soy agar with 5% sheep blood. The plates are incubated anaerobically at 35.2±2.5° C. for a minimum of 48 hours. The same procedure is repeated for the Phosphate Buffer Saline control. After the incubation period, all plates are counted to determine the number of microorganisms remaining at each time point. The concentration of each microorganism for the control and product is calculated for each interval. The log reduction is calculated to determine the change (reduction or increase) of the microorganism population relative to a starting inoculum. The minimum required bactericidal concentration is defined as a 3 log reduction from the initial inoculum.

[1] = tested on: Staphylococcus aureus ATCC 6538; assay: MIC by the agar dilution method; assay type: cell-based; conditions: pH 5.5
Procedure: (§1) To assess the anti-microbial potency of Neramexane against bacteria strains which are relevant for atopic dermatitis and localized skin infections (“impetigo”), the minimal inhibitory concentration (MIC) against the following bacteria is established:
(§2) The MICs of the samples are determined using the agar dilution method based on DIN 58940. Petri dishes of 5.5 cm diameter are poured with 2.5 ml of freshly prepared Mueller-Hinton agar 2-fold concentrated (Merck company, Cat-No 1.05437), pH 5.5, maintained in liquid form at 50° C., to which the sample dilutions at various concentrations has been added at 50.0 vol.-%.
(§3) Neramexane-Mesylate is tested in the concentration range of 6.25-1*10^−2%. All test solutions are adjusted to pH 5.5.
(§4) For inoculation, 1 μl of the respective germ suspension is placed on the centre of each agar plate. After drying, inoculated plates are incubated at 36.0±2.0° C. The basis for the length of incubation period is the respective growth control cultivated in parallel.
(§5) The test microbe suspension is prepared by inoculating a few individual colonies of the respective bacteria into sterile saline solution until a turbidity corresponding to the McFarland standard 1.0 (approximately 10^8 cfu/ml) is reached. After that, the test microbe suspensions are further diluted 1:10 with saline solution and the microbial counts (see Table 33) are determined by the surface spread method using a spiral plater.
(§6) The agar plates are incubated under the conditions given in Table 34 and subsequently evaluated. The MIC-values as given represent the lowest concentration of the active substance at which there is no macroscopically visible growth. Minimal, barely visible growth or few small individual colonies are evaluated as inhibition.
(§7) The growth of bacteria is indicated for the duplicate plates by a +(i.e., growth) or a −(i.e., no growth), +− indicates weak growth on both plates or growth on one plate and no growth on the other plate. Both bacteria-strains show appropriate growth on the respective control plate not containing any test compound. No influence of the used diluent (Aqua purifacata) is observed. No contamination is observed on the control-plates. In general it has to be considered that values determined by the used method can vary by a factor of 2 (for 1:2 dilutions).

[2] = tested on: Streptococcus pyogenes ATCC 12344; assay: MIC by the agar dilution method; assay type: cell-based; conditions: pH 5.5
Procedure: as §1, §2, §3, §4, §5, §6, §7

dermal application sites = assay: Local tolerability of topical formulation, 14 days of daily dermal treatment; assay type: in vivo, Göttingen minipigs
Procedure: The objective of this study is to evaluate the local tolerance of Neramexane mesylate in a topical formulation at different dose levels after 14 days of daily dermal treatment to minipigs.
The study is performed in 4 female Gottingen SPF minipigs (from Ellegaard Gottingen Minipigs Aps). Each animal has 5 application sites (25 cm^2) marked on the back and is dosed for 8 hours each day. Each test site is used for the same test item or placebo throughout the study. The test group is treated with Neramexane mesylate at the following concentrations: 0, 0.5, 2.5, 5.0 and 10.0% (w/w).
Clinical signs are recorded 2-4 hours post start of each treatment and the local dermal reactions (erythema, oedema) are evaluated prior to treatment. Body weight is recorded weekly (and also on Day 1 and at necropsy).

[3] = 0.5, 2.5, 5.0 and 10.0% (w/w), dermal, 14 days

CC1(C)CC(C)(C)CC(C)(N)C1.CS(=O)(=O)O [Neramexane mesylate]
% Reduction (Propionibacterium acnes; exposure time 30 sec): 91.6%
Concentration of Organism (CFU/mL) (Propionibacterium acnes; exposure time 30 sec): 1.8E+04 CFU/mL
Log Reduction (Propionibacterium acnes; exposure time 30 sec): 1.1
% Reduction (Propionibacterium acnes; exposure time 1 min): 79.0%
Concentration of Organism (CFU/mL) (Propionibacterium acnes; exposure time 1 min): 4.4E+04 CFU/mL
Log Reduction (Propionibacterium acnes; exposure time 1 min): 0.7
% Reduction (Propionibacterium acnes; exposure time 5 min): 100.0%
Concentration of Organism (CFU/mL) (Propionibacterium acnes; exposure time 5 min): <10 CFU/mL
Log Reduction (Propionibacterium acnes; exposure time 5 min): 4.3
growth of bacteria on duplicate plates (MIC determination) ([1]; final concentration 0.01 %): + +
growth of bacteria on duplicate plates (MIC determination) ([1]; final concentration 0.04 %): + +
growth of bacteria on duplicate plates (MIC determination) ([1]; final concentration 0.08 %): + +
growth of bacteria on duplicate plates (MIC determination) ([1]; final concentration 0.16 %): + +
growth of bacteria on duplicate plates (MIC determination) ([1]; final concentration 0.31 %): + +
growth of bacteria on duplicate plates (MIC determination) ([1]; final concentration 0.63 %): + −
growth of bacteria on duplicate plates (MIC determination) ([1]; final concentration 1.56 %): − −
growth of bacteria on duplicate plates (MIC determination) ([1]; final concentration 2.50 %): − −
growth of bacteria on duplicate plates (MIC determination) ([1]; final concentration 3.13 %): − −
growth of bacteria on duplicate plates (MIC determination) ([1]; final concentration 6.25 %): − −
MIC [1]: 1.56%
growth of bacteria on duplicate plates (MIC determination) ([2]; final concentration 0.01 %): + +
growth of bacteria on duplicate plates (MIC determination) ([2]; final concentration 0.04 %): + +
growth of bacteria on duplicate plates (MIC determination) ([2]; final concentration 0.08 %): − −
growth of bacteria on duplicate plates (MIC determination) ([2]; final concentration 0.16 %): − −
growth of bacteria on duplicate plates (MIC determination) ([2]; final concentration 0.31 %): − −
growth of bacteria on duplicate plates (MIC determination) ([2]; final concentration 0.63 %): − −
growth of bacteria on duplicate plates (MIC determination) ([2]; final concentration 1.56 %): − −
growth of bacteria on duplicate plates (MIC determination) ([2]; final concentration 2.50 %): − −
growth of bacteria on duplicate plates (MIC determination) ([2]; final concentration 3.13 %): − −
growth of bacteria on duplicate plates (MIC determination) ([2]; final concentration 6.25 %): − −
MIC [2]: 0.08%
test item related changes (conclusion) (dermal application sites; 0.5%, 2.5%, 5% and 10% in a topical formulation, 14 Days): no test item related changes
clinical signs and body weight gain (dermal application sites; [3]): No test item related changes are observed
dermal skin reactions (erythema, oedema) (dermal application sites; [3]): no test item related dermal skin reactions are observed
gross necropsy (dermal application sites; [3]): no macroscopic changes are observed
histopathology evaluation of the dermal application sites (dermal application sites; [3]): no treatment-related macroscopic or microscopic findings
